Data taken from patent publication US9738614B2, “Malignant and non-malignant disease treatment with Ras antagonists” (PISCES THERAPEUTICS, LLC, priority 2011, dated 2017).

Columns and labels:
Format in all cases: cell-based
PANC-1 cells = test: Cell proliferation assay for PANC-1 cells; conditions: 1.25 μM, media with 5% serum, five days (FIG. 3)
Method: The adult glioblastoma cell line U87MG was obtained from a commercial source (ATCC). The pancreatic cancer cell line PANC-1 was obtained from a local laboratory (Indiana University). Both lines were grown in Iscove's Modified Dulbecco's Medium with 10% fetal bovine serum (FBS) at 37° C. and 5% CO2.
Compounds (1), (2), (3), (4), and (5), which are shown and described above, were each dissolved in ethanol at 10 mg/mL. A measured portion of the solution was pipetted into a microcentrifuge tube. Then, the ethanol was evaporated from each tube using a SpeedVac®, leaving just the compound in the tube. The appropriate amount of chloroform was added to the tube to produce a 0.1 M concentration. The solutions were placed on ice and in the dark so they could be pipetted into 10- and 20-μL aliquots in 1.5 mL microcentrifuge tubes. The solutions were frozen at […] with lids closed tightly and the tubes covered with foil.
Prior to treating the cells, a tube of the test compound was removed from the freezer and placed under a biosafety hood to evaporate the chloroform in the tubes. Then, dimethyl sulfoxide (DMSO) was added to the tubes to make the correct concentration to use in the experiment (0.1 M stock). The tubes were vortexed, and warm media with 10% FBS was slowly added to make the correct working concentrations to be used in the experiment. The compounds were directly added to each well for treatment.
The cells were treated in triplicate with standard concentrations of 6.25, 12.5, 25, 50, and 100 μM of each test compound (3) and (5) and the reference compound FTS and, when needed, concentrations of 0.625, 1.25, 2.5 and 5.0 μM in media with 5% serum for five days. Then, the cells were stained with trypan blue, and the cell number per each well was determined. Again, the IC50 values were calculated using Multiplex Reader-Fit software made by MiraiBio Group, Hitachi Solutions America, Ltd. In a typical experiment, the control wells averaged 32,500 cells. The results are presented graphically in FIG. 3. […]

[1] = system: hematopoietic progenitor cells (cord blood low density cells); test: Human hematopoietic progenitor cell toxicity (colony assay); conditions: 12 days; 25 and 2.5 μM for compound (3), 2.5 and 0.25 μM for compound (5)
Method: Cord blood low density cells were plated at 1×10^5 cells per plate in 1 mL complete methylcellulose in the presence of each test compound (3) and (5) and incubated for 12 days in a CO2 incubator. Colony-forming unit-granulocyte (CFU-GM), burst-forming unit-erythroid (BFU-E), and mixed colonies were counted under an inverted microscope. […] The test compounds were not toxic to the hematopoietic progenitor cells.

NF-1+/- mast cells = test: NF-1+/- mast cell proliferation (3H-thymidine incorporation); conditions: 0-12.5 μM, 24 hours after SCF stimulation (FIG. 4B)
Method: Purified populations of NF-1+/−mast cells were stimulated with a maximum stimulating concentration of stem cell factor (SCF) in the presence of a control or compound (5) at concentrations of 10-15 μM. The activated, GTP-bound form of Ras (Ras-GTP) was measured 3 minutes subsequently using Western blot analysis. […] In parallel experiments, mast cell proliferation was measured using 3H-thymidine incorporation 24 hours after SCF stimulation in the presence of a control or compound (5) at concentrations of 0-12.5 μM. […] Each asterisk in FIG. 4B represents a statistical difference relative to the control using analysis of variance. (Yang, Feng-Chun, et. al. J Clin Invest 2003, 112(12), 1851-1861; Yang, Feng-Chun, et. al. Hum Mol Genet 2006, 15(11), 1921-1930).

sNFO2.2 cells = test: IC50 assay with sNFO2.2 MPNST cells; conditions: Homo sapiens, 0.5 to 20 μM, read-out: half-maximal effect on viability
Method: (§1) U87MG cells were seeded in a 24-well plate, 5000 cells per well, and incubated overnight at 37° C. in serum-free media. The next day they were treated in triplicate with 50 and 100 μM of each test compound (1), (2), (3), (4), and (5) and the reference compound FTS. After five days, the cells were trypsinized (0.5%), stained with trypan blue, and counted to determine the cell number per well. The half-maximal inhibitory concentration (IC50) values were calculated using Multiplex Reader-Fit software made by MiraiBio Group, Hitachi Solutions America, Ltd. In a typical experiment, the control wells averaged 138,000 cells. The results are presented graphically in FIG. 1. The test compounds at 50 μM allowed the following U87MG cell proliferation compared to control: compound (1)—37%, compound (2)—18%, compound (3)—10%, compound (4)—40%, and compound (5)—0%. The reference compound FTS at 50 μM allowed 7% cell proliferation compared to control.
Two additional MPNST cell lines, sNF94.3 and sNFO2.2, were subjected to IC50 assays similar to Examples 6 and 11 above. Like the ST88-14 cells from Example 11, the sNF94.3 and sNFO2.2 cells came from NF-1 patients too.

JW19 cells = test: IC50 assay with JW19 mouse MPNST cells; conditions: 0.5 to 20 μM, read-out: half-maximal effect on viability
Method: as §1
Mouse models of NF-1 related MPNST have been made. Cells from two such mice, JW16 and JW19, have been isolated and propagated. The JW16 and JW19 cells were subjected to IC50 assays similar to Example 6 above.

LAM cells = test: IC50 assay with lymphangioleiomyomatosis (LAM) cells; conditions: Homo sapiens, 0.1 to 50 μM, read-out: half-maximal inhibition of viability
Method: as §1
Human lymphangioleiomyomatosis (LAM) cells were subjected to an IC50 assay similar to Example 6 above.

EJ cells = test: IC50 assay with EJ bladder cancer cells; conditions: Homo sapiens, 1.5 to 25 μM, read-out: half-maximal inhibition of viability
Method: as §1
EJ bladder cancer cells, which harbor a H-Ras mutation, were subjected to an IC50 assay similar to Example 6 above. EJ cells were grown in concentrations of compound (5) ranging from 1.5 to 25 μM.

USPC1 cells = test: IC50 assay with USPC1 endometrial cancer cells; conditions: 1 to 50 μM, read-out: half-maximal inhibition of viability
Method: as §1
ECC1 (well differentiated) and USPC1 (poorly differentiated) endometrial cancer cells were subjected to IC50 assays similar to Example 6 above. The cells were grown in concentrations of compound (5) ranging from 1 to 50 μM.

## CC(C)=CCC/C(C)=C/CC/C(C)=C/CSc1ccccc1C1=NCCN1 [compound (5), 2-(2-{[(2E,6E)-3,7,11-trimethyldodeca-2,6,10-trien-1-yl]sulfanyl}phenyl)-4,5-dihydro-1H-imidazole]
PANC-1 cells
  PANC-1 cell proliferation compared to control: 56%
[1]
  toxicity to hematopoietic progenitor cells (CFU-GM, BFU-E, mixed colonies): not toxic
NF-1+/- mast cells
  mast cell proliferation relative to the control: reduced
sNFO2.2 cells
  IC50: 2900 nM
JW19 cells
  IC50: 4000 nM
LAM cells
  IC50: 4000 nM
EJ cells
  IC50: 2500 nM
USPC1 cells
  IC50: 2000 nM
